Measured values as given in US20120244567A1, “HUMAN EMBRYONIC STEM CELLS FOR HIGH THROUGHOUT DRUG SCREENING” (BUCK INSTITUTE FOR RESEARCH ON AGING, priority 2009, published 2012).
Counter-ions that a name gives are not always drawn.

System: dopaminergic neurons
Details: enriched in treated DA neurons
Experimental: RNAs isolated from NSCs and neurons with and without drug treatments were hybridized to Illumina HumanRef-8 BeadChip (Illumina, Inc., San Diego, Calif., performed by Microarray core facility at the Burnham Institute for Medical Research). The Illumina array data were normalized by the quantile method, and then transformed log 2 ratio values for a zero mean for expression values of each gene across all samples. The statistical and bioinformatics analyses were conducted by using R and the bioconductor package (www.bioconductor.org). The gene set enrichment analysis was conducted using the GSEA software (www.broad.mit.edu/gsea).
The comparative results are then measured by a non-parametric, running sum statistic termed the enrichment score. The enrichment score significance is assessed by 1,000 permutation tests to compute the enrichment p-value.

What does the source list for `CCCCc1oc2ccccc2c1C(=O)c1cc(I)c(OCCN(CC)CC)c(I)c1` [Amiodarone Hydrochloride]?
Nes: Secondary Active Transmembrane Transporter Activity (Nom P-Val 0): 1.633; Nes: Protein Serine Threonine Kinase Activity (Nom P-Val 0.027778): 1.386; Nes: Sequence Specific Dna Binding (Nom P-Val 0.056338): 1.388; Nes: Phosphotransferase Activity Alcohol Group As Acceptor (Nom P-Val 0.059524): 1.237; Nes: Anion Transmembrane Transporter Activity (Nom P-Val 0.065574): 1.432; Nes: Lipase Activity (Nom P-Val 0.067797): 1.422; Nes: Active Transmembrane Transporter Activity (Nom P-Val 0.082192): 1.376; Nes: Receptor Signaling Protein Serine Threonine Kinase Activity (Nom P-Val 0.157895): 1.268; Nes: Protein Kinase Activity (Nom P-Val 0.176471): 1.196; Nes: Structural Constituent Of Muscle (Nom P-Val 0.207547): 1.208; Nes: Structure Specific Dna Binding (Nom P-Val 0.230769): 1.183; Nes: Receptor Signaling Protein Activity (Nom P-Val 0.236842): 1.149; Nes: Ligase Activity Forming Carbon Nitrogen Bonds (Nom P-Val 0.242857): 1.127; Nes: Small Conjugating Protein Ligase Activity (Nom P-Val 0.243243): 1.144; Nes: Ligase Activity (Nom P-Val 0.25): 1.14; Nes: Phosphoric Diester Hydrolase Activity (Nom P-Val 0.25): 1.183; Nes: Rhodopsin Like Receptor Activity (Nom P-Val 0.25): 1.144; Nes: Small Protein Conjugating Enzyme Activity (Nom P-Val 0.257576): 1.146; Nes: Deoxyribonuclease Activity (Nom P-Val 0.258621): 1.315; Nes: Acid Amino Acid Ligase Activity (Nom P-Val 0.28): 1.18; Nes: Ubiquitin Protein Ligase Activity (Nom P-Val 0.301587): 1.139; Nes: Atp Binding (Nom P-Val 0.318841): 1.077; Nes: Atpase Activity Coupled To Movement Of Substances (Nom P-Val 0.355932): 1.065; Nes: Dna Binding (Nom P-Val 0.359551): 1.034; Nes: Nuclease Activity (Nom P-Val 0.360656): 1.072; Nes: Hydrogen Ion Transmembrane Transporter Activity (Nom P-Val 0.366667): 1.078; Nes: Udp Glycosyltransferase Activity (Nom P-Val 0.366667): 1.093; Nes: Kinase Activity (Nom P-Val 0.367816): 1.036; Nes: Rna Polymerase Ii Transcription Factor Activity (Nom P-Val 0.371429): 1.042; Nes: Hydrolase Activity Acting On Acid Anhydrides Catalyzing Transmembrane Movement Of Substances (Nom P-Val 0.376812): 1.094; Nes: Double Stranded Dna Binding (Nom P-Val 0.37931): 1.072; Nes: Enzyme Activator Activity (Nom P-Val 0.382353): 1.049; Nes: Transmembrane Receptor Activity (Nom P-Val 0.382716): 1.055; Nes: Inorganic Cation Transmembrane Transporter Activity (Nom P-Val 0.40625): 1.065; Nes: Enzyme Inhibitor Activity (Nom P-Val 0.409091): 1.052; Nes: Transferase Activity Transferring Groups Other Than Amino Acyl Groups (Nom P-Val 0.415385): 1.05; Nes: Endonuclease Activity (Nom P-Val 0.419355): 0.9859; Nes: Cytokine Activity (Nom P-Val 0.421875): 1.063; Nes: Oxidoreductase Activity Acting On Ch Oh Group Of Donors (Nom P-Val 0.424242): 1.054; Nes: Oxidoreductase Activity Acting On The Ch Ch Group Of Donors (Nom P-Val 0.428571): 1.028; Nes: Primary Active Transmembrane Transporter Activity (Nom P-Val 0.430556): 1.056; Nes: Gtpase Activity (Nom P-Val 0.442857): 1.015; Nes: Transferase Activity Transferring Acyl Groups (Nom P-Val 0.451613): 1.003; Nes: Damaged Dna Binding (Nom P-Val 0.45283): 1.036; Nes: Phosphatase Regulator Activity (Nom P-Val 0.467742): 1.042; Nes: N Acetyltransferase Activity (Nom P-Val 0.473684): 1.019; Nes: Structural Constituent Of Cytoskeleton (Nom P-Val 0.482759): 0.9708; Nes: Adenyl Ribonucleotide Binding (Nom P-Val 0.506667): 0.9848; Nes: G Protein Coupled Receptor Activity (Nom P-Val 0.514706): 0.9852; Nes: Protease Inhibitor Activity (Nom P-Val 0.516667): 0.9864; Nes: Transmembrane Receptor Protein Kinase Activity (Nom P-Val 0.516667): 0.965; Nes: N Acyltransferase Activity (Nom P-Val 0.519231): 0.9889; Nes: Enzyme Regulator Activity (Nom P-Val 0.520548): 0.9793; Nes: Hormone Activity (Nom P-Val 0.523077): 0.9749; Nes: General Rna Polymerase Ii Transcription Factor Activity (Nom P-Val 0.530612): 0.9238; Nes: Pyrophosphatase Activity (Nom P-Val 0.54321): 0.9536; Nes: Purine Ribonucleotide Binding (Nom P-Val 0.5625): 0.9577; Nes: Receptor Activity (Nom P-Val 0.5625): 0.9738; Nes: Transferase Activity Transferring Sulfur Containing Groups (Nom P-Val 0.566667): 0.9403; Nes: Magnesium Ion Binding (Nom P-Val 0.567568): 0.9401; Nes: Integrin Binding (Nom P-Val 0.571429): 0.9141; Nes: Substrate Specific Transporter Activity (Nom P-Val 0.573171): 0.929; Nes: Acetyltransferase Activity (Nom P-Val 0.6): 0.9474; Nes: Single Stranded Dna Binding (Nom P-Val 0.605634): 0.9533; Nes: Protein Homodimerization Activity (Nom P-Val 0.621212): 0.8817; Nes: Protein Domain Specific Binding (Nom P-Val 0.628571): 0.9357; Nes: Lipid Transporter Activity (Nom P-Val 0.62963): 0.9194; Nes: Protein Dimerization Activity (Nom P-Val 0.636364): 0.9248; Nes: Ion Transmembrane Transporter Activity (Nom P-Val 0.64): 0.9276; Nes: Transferase Activity Transferring Hexosyl Groups (Nom P-Val 0.642857): 0.9266; Nes: Nucleotide Binding (Nom P-Val 0.643836): 0.9324; Nes: Transferase Activity Transferring Phosphorus Containing Groups (Nom P-Val 0.64557): 0.9499; Nes: Zinc Ion Binding (Nom P-Val 0.647059): 0.896; Nes: Translation Regulator Activity (Nom P-Val 0.661017): 0.8764; Nes: Translation Factor Activity Nucleic Acid Binding (Nom P-Val 0.681159): 0.8454; Nes: Carbohydrate Binding (Nom P-Val 0.688525): 0.8882; Nes: Adenyl Nucleotide Binding (Nom P-Val 0.694118): 0.8847; Nes: Microtubule Binding (Nom P-Val 0.696429): 0.8123; Nes: Substrate Specific Transmembrane Transporter Activity (Nom P-Val 0.697368): 0.9071; Nes: Transcription Cofactor Activity (Nom P-Val 0.7): 0.8775; Nes: Transcription Coactivator Activity (Nom P-Val 0.708333): 0.8777; Nes: Sulfotransferase Activity (Nom P-Val 0.719298): 0.88; Nes: Endopeptidase Activity (Nom P-Val 0.720588): 0.8136; Nes: Metallopeptidase Activity (Nom P-Val 0.733333): 0.8731; Nes: Neurotransmitter Binding (Nom P-Val 0.754717): 0.789; Nes: Neurotransmitter Receptor Activity (Nom P-Val 0.757576): 0.7972; Nes: Lyase Activity (Nom P-Val 0.758065): 0.8646; Nes: Transmembrane Transporter Activity (Nom P-Val 0.759494): 0.8985; Nes: Transcription Repressor Activity (Nom P-Val 0.76): 0.8555; Nes: Nucleoside Triphosphatase Activity (Nom P-Val 0.761905): 0.8734; Nes: Purine Nucleotide Binding (Nom P-Val 0.763158): 0.861; Nes: Hydrolase Activity Acting On Acid Anhydrides (Nom P-Val 0.770115): 0.8688; Nes: Motor Activity (Nom P-Val 0.77193): 0.7716; Nes: Calcium Channel Activity (Nom P-Val 0.781818): 0.7534; Nes: Hydro Lyase Activity (Nom P-Val 0.792453): 0.773; Nes: Calcium Ion Binding (Nom P-Val 0.805556): 0.7913; Nes: Hydrolase Activity Acting On Carbon Nitrogen But Not Peptide Bonds In Linear Amides (Nom P-Val 0.826923): 0.6663; Nes: Transmembrane Receptor Protein Tyrosine Kinase Activity (Nom P-Val 0.828947): 0.7856; Nes: Ion Binding (Nom P-Val 0.833333): 0.813; Nes: Molecular Adaptor Activity (Nom P-Val 0.84507): 0.7682; Nes: Gtp Binding (Nom P-Val 0.848485): 0.769; Nes: Guanyl Nucleotide Exchange Factor Activity (Nom P-Val 0.857143): 0.7708; Nes: Carbon Oxygen Lyase Activity (Nom P-Val 0.86): 0.7402
